Experiment: method code SF-GLC, from DOI: 10.1016/0378-4274(82)90116-3, PMID: 7090003
Conditions: not given
`C=C(C)C(=O)OC(C)(C)C` gave a logP of 2.54.
For `C=CC(=O)OCC(C)C`, the logP was 2.22.
`C=C(C)C(=O)OCC(C)O` (centres undefined) showed a logP of 0.97.
Compound `C=C(C)C(=O)OCC(C)C` has a logP of 2.66.
`C=CC(=O)OCCO` gave a logP of -0.21.
Work on `C=C(C)C(=O)OCCO` yielded a logP of 0.47.

Experiment: method code SF-HPLC, from DOI: 10.3109/14756366.2013.845817, PMID: 24156741
Conditions: not given
Compound `C#CCn1cc(C(=O)NC(c2ccccc2)C(O)C(=O)Nc2ccccn2)c(=O)c2cccnc21` (centres undefined) has a logP of 4.02.
In the case of `C#CCn1cc(C(=O)NC(CC(=O)Nc2ccccc2)c2ccccc2)c(=O)c2ccc(Cl)nc21` (centres undefined), the logP is reported as 5.41.
Compound `C#CCn1cc(C(=O)NC(CC(=O)NC2CCCC2)c2ccccc2)c(=O)c2cc(F)c(Cl)nc21` (centres undefined) has a logP of 5.96.
`C#CCn1cc(C(=O)NC(c2ccccc2)C(O)C(=O)NC2CCCCC2)c(=O)c2ccc(Cl)nc21` (centres undefined) showed a logP of 5.14.
`C#CCn1cc(C(=O)NC(c2ccccc2)C(O)C(=O)NC2CCCC2)c(=O)c2cc(F)c(Cl)nc21` (centres undefined) gave a logP of 5.82.
Compound `C#CCn1cc(C(=O)NC(c2ccccc2)C(O)C(=O)Nc2ccccn2)c(=O)c2cc(F)c(Cl)nc21` (centres undefined) has a logP of 5.32.
In the case of `C#CCn1cc(C(=O)NC(c2ccccc2)C(O)C(=O)Nc2ccccc2)c(=O)c2cccnc21` (centres undefined), the logP is reported as 4.25.

Experiment: method code SF-AS, from DOI: 10.1016/0021-9673(91)80064-n
Conditions: not given
With `C=CC(=O)NCCCN1CCSCC1` the logP was 0.54.
`C=CC(=O)NCCN(C)C` gave a logP of -0.25.
For `C=CC(=O)NCCCN(CC)CC`, the logP was 0.72.
`C=CC(=O)NCCCN(CCO)CCO` showed a logP of -0.6.
In the case of `C=CC(=O)NCCCN(C)C`, the logP is reported as 0.
For `C=CC(=O)NCCc1c[nH]cn1`, the logP was -0.21.

Experiment: method code SF, from DOI: 10.1016/0360-3016(86)90226-9, PMID: 3744928
Conditions: pH 7.4
`COC(=O)Cn1cnc([N+](=O)[O-])n1` gave a logD of -0.38.
For `O=C(Cn1cnc([N+](=O)[O-])n1)NCCCO`, the logD was -1.24.
In the case of `CCOCC(O)Cn1cnc([N+](=O)[O-])n1` (centres undefined), the logD is reported as -0.07.
For `O=[N+]([O-])c1ncn([C@H]2O[C@H](CO)[C@@H](O)[C@H]2O)n1`, the logD was -1.54.
For `O=[N+]([O-])c1ncn(CC(O)CCl)n1` (centres undefined), the logD was 0.05.
With `O=[N+]([O-])c1nccn1CC(O)CN1CC1` (centres undefined) the logD was -0.66.

Experiment: method code SF-AS, from DOI: 10.1007/s001289900721, PMID: 9657823
Conditions: not given
With `O=Cc1cc(Br)ccc1Br` the logP was 3.35.
`O=Cc1ccc(O)c(Br)c1` showed a logP of 1.83.
`CCOc1ccc(C=O)cc1OC` gave a logP of 1.63.
Work on `CC(C)OC(=O)COc1ccc(C=O)cc1` yielded a logP of 1.88.
`O=Cc1cccc(O)c1` showed a logP of 1.29.
Compound `O=Cc1cc(O)cc(Br)c1` has a logP of 2.5.
Work on `COc1cc(C=O)cc(OC)c1OC` yielded a logP of 1.39.

Experiment: method code SF, from DOI: 10.1002/jps.2600830714, PMID: 7965679
Conditions: not given
Work on `O=NN(CCCl)C(=O)NCC(=O)NC1C(O)OC(CO)C(O)C1O` (centres undefined) yielded a logP of -1.1.
In the case of `COC1OC(CO)C(O)C(O)C1NC(=O)C(C)NC(=O)N(CCCl)N=O` (centres undefined), the logP is reported as -0.76.
With `CO[C@H]1O[C@H](CO)[C@@H](O)[C@H](O)[C@H]1NC(=O)CNC(=O)N(CCCl)N=O` the logP was -1.04.
In the case of `CC(NC(=O)N(CCCl)N=O)C(=O)NC1C(O)OC(CO)C(O)C1O` (centres undefined), the logP is reported as -1.02.
In the case of `NC(=O)CNC(=O)N(CCCl)N=O`, the logP is reported as -0.3.
For `CC(=O)OC[C@H]1O[C@@H](OC(C)=O)[C@H](NC(=O)CNC(=O)N(CCCl)N=O)[C@@H](OC(C)=O)[C@@H]1OC(C)=O`, the logP was 0.61.

Experiment: method code SF-AS, from DOI: 10.1021/jm00223a031, PMID: 810572
Conditions: not given
Compound `Cc1ccc(O)c2ncccc12` has a logP of 2.37.
Compound `COc1ccc(O)c2nccc(C)c12` has a logP of 2.75.
With `Nc1ccc(O)c2ncccc12` the logP was -0.11.
In the case of `Cc1ccnc2c(O)ccc(C)c12`, the logP is reported as 2.71.
In the case of `Oc1ccnc2c(O)cccc12`, the logP is reported as 0.62.
For `Cc1ccnc2c(O)ccc(O)c12`, the logP was 1.59.

Experiment: not given
Conditions: not given
In the case of `Cc1c[nH]c2ccccc12`, the logP is reported as 2.61.
`CCOC(=O)c1ccco1` gave a logP of 1.57.
For `CNC(=O)c1ccccc1`, the logP was 1.05.
With `c1ccoc1` the logP was 1.31.
With `CCc1cnccn1` the logP was 0.79.
For `c1cncnc1`, the logP was -0.34.

Experiment: method code SF-HPLC, from DOI: 10.1002/ps.2780220406
Conditions: not given
In the case of `FC(F)(F)c1cccc(Cn2cncn2)c1`, the logP is reported as 1.74.
Compound `COc1ccc(Cn2cncn2)cc1` has a logP of 1.1.
`CCCCc1ccc(Cn2cncn2)cc1` gave a logP of 2.81.
`Clc1ccc(Cn2cncn2)cc1` showed a logP of 1.84.
`c1ccc(Cn2cncn2)cc1` gave a logP of 0.92.
`Fc1ccc(Cn2cncn2)cc1` showed a logP of 1.1.

Experiment: not given
Conditions: not given
Remark: another data set of the same source
Work on `Cc1cc[n+]([O-])cc1` yielded a logP of -0.88.
`[O-][n+]1cccc2ccccc21` gave a logP of 0.41.
With `[O-][n+]1ccc(Cl)cc1` the logP was -0.44.
With `CC(=O)c1cc[n+]([O-])cc1` the logP was -0.93.
Compound `CCOc1cc[n+]([O-])cc1` has a logP of -0.53.
For `N#Cc1cc[n+]([O-])cc1`, the logP was -0.91.

Experiment: not given
Conditions: not given
Remark: another data set of the same source
`N#Cc1cc(-c2ccncc2)cnc1N1CCNCC1` showed a logP of 2.51.
For `N#Cc1cc(-c2ccncc2)cnc1N1CCN(CCO)CC1`, the logP was 2.14.
Work on `CCN(CC)CCCNc1ncc(-c2ccncc2)cc1C#N` yielded a logP of 2.56.
In the case of `N#Cc1cc(-c2ccncc2)cnc1NCCCN1CCOCC1`, the logP is reported as 2.43.
In the case of `Cc1nc(N2CCNCC2)c(C#N)cc1-c1ccccc1`, the logP is reported as 3.15.
Work on `Cc1nc(N2CCNCC2)c(C#N)cc1-c1ccncc1` yielded a logP of 2.96.
With `N#Cc1cc(-c2ccncc2)cnc1NCCN` the logP was 1.93.

Experiment: method code SF-AS, from DOI: 10.2307/3577276, PMID: 2913608
Conditions: not given
For `Cn1cnc([N+](=O)[O-])c1S(N)(=O)=O`, the logP was -0.74.
With `O=[N+]([O-])c1nc[nH]c1S(=O)(=O)NC1CCCCC1` the logP was 1.38.
`CC(=O)Nc1ccccc1NS(=O)(=O)c1[nH]cnc1[N+](=O)[O-]` showed a logP of -0.06.
In the case of `CC(C)(C)c1ccc(NS(=O)(=O)c2[nH]cnc2[N+](=O)[O-])cc1`, the logP is reported as 2.28.
With `CC(=O)Nc1cccc(NS(=O)(=O)c2[nH]cnc2[N+](=O)[O-])c1` the logP was 0.2.
For `CCNS(=O)(=O)c1[nH]cnc1[N+](=O)[O-]`, the logP was -0.37.

Experiment: method code SF-HPLC, from DOI: 10.1016/s0021-9673(01)88640-4
Conditions: not given
`N#CN=[N+]([O-])c1ccnc2ccccc12` showed a logP of 2.07.
With `N#CN=[N+]([O-])c1ncccn1` the logP was -0.31.
For `N#CN=[N+]([O-])c1cccc2ccccc12`, the logP was 3.17.
`N#CN=[N+]([O-])c1cc[n+]([O-])c2ccccc12` showed a logP of 1.12.
With `N#CN=[N+]([O-])c1cc[n+]([O-])cc1` the logP was -0.41.
For `N#CN=[N+]([O-])c1ccccn1`, the logP was 0.53.

Experiment: not given
Conditions: not given
Remark: another data set of the same source
Work on `NS(=O)(=O)c1ccc([N+](=O)[O-])cc1[N+](=O)[O-]` yielded a logP of 0.3.
Compound `NS(=O)(=O)c1ccccc1[N+](=O)[O-]` has a logP of 0.4.
Compound `NS(=O)(=O)c1cc(C(=O)O)cc(N2CCCC2)c1Oc1ccccc1` has a logP of 3.27.
`NS(=O)(=O)c1cc(Cl)ccc1Cl` showed a logP of 1.65.
With `CN(C)c1cccc2c(S(N)(=O)=O)cccc12` the logP was 1.83.
With `CC(C)CN[C@H]1CCS(=O)(=O)c2sc(S(N)(=O)=O)cc21` the logP was -0.03.
`NS(=O)(=O)c1ccc([N+](=O)[O-])cc1` gave a logP of 0.58.

Experiment: method code SF, from DOI: 10.1016/0360-3016(89)90912-7, PMID: 2703384
Conditions: pH 7.4
`O=[N+]([O-])c1nccn1CC(F)(F)CO` showed a logD of 0.04.
Work on `O=[N+]([O-])c1cn(CC(O)CF)cn1` (centres undefined) yielded a logD of -0.44.
For `O=[N+]([O-])c1cn(CC(F)(F)CO)cn1`, the logD was -0.21.
Work on `O=C(Cn1cnc([N+](=O)[O-])c1)NCCO` yielded a logD of -0.46.
`COCCNC(=O)C(F)(F)Cn1ccnc1[N+](=O)[O-]` gave a logD of -0.15.
`COCC(F)Cn1ccnc1[N+](=O)[O-]` (centres undefined) showed a logD of 0.18.

Experiment: method code SF-AS, from DOI: 10.1007/bf02877675, PMID: 411721
Conditions: not given
`N#CC(C#N)=NNc1ccc(Br)cc1` gave a logP of 3.38.
With `N#CC(C#N)=NNc1ccc(Cl)c(Cl)c1` the logP was 3.42.
In the case of `N#CC(C#N)=NNc1ccccc1Cl`, the logP is reported as 2.65.
Compound `CC(=O)c1ccc(NN=C(C#N)C#N)cc1` has a logP of 2.17.
In the case of `N#CC(C#N)=NNc1ccc(Cl)cc1`, the logP is reported as 3.08.
Work on `N#CC(C#N)=NNc1ccc([N+](=O)[O-])cc1` yielded a logP of 2.34.

Experiment: not given
Conditions: not given
Remark: another data set of the same source
For `CCOP(=S)(OCC)SCCSCC`, the logP was 3.84.
For `CCCOP(=O)(OCCC)Oc1ccc(SC)cc1`, the logP was 3.44.
`CCOC(=O)C(SP(=S)(OC)OC)c1ccccc1` (centres undefined) gave a logP of 3.32.
In the case of `CCCOP(=S)(OCCC)SCC(=O)N1CCCCC1C` (centres undefined), the logP is reported as 4.04.
`COP1(=S)OCc2ccccc2O1` (centres undefined) showed a logP of 2.12.
`CCN(OC(=O)c1ccccc1)C(=O)c1c(OC)ccc(Cl)c1OC` showed a logP of 3.73.
`Cc1ccc(S(=O)(=O)Oc2c(C(=O)c3ccc(Cl)cc3Cl)c(C)nn2C)cc1` showed a logP of 3.9.

Experiment: method code SF-HPLC, from DOI: 10.1248/cpb.43.1894
Conditions: not given
In the case of `CSC(=S)C(C)(C)C(=O)c1ccccc1`, the logP is reported as 3.9.
Work on `CSC1=CCCCC1` yielded a logP of 3.3.
Compound `CSC(=S)C1=C(SC)CCCC1` has a logP of 3.81.
Work on `CSC(=S)c1ccccc1SC` yielded a logP of 3.74.
`S=C1CCCC1=C1SCCS1` gave a logP of 3.12.
With `CC(C)C(=O)c1ccccc1` the logP was 2.59.
In the case of `CSC(=S)C(C)(C)C(C)=O`, the logP is reported as 2.8.
